{"source": "patent US5484785A", "about": "“Salts of a quinolone-carboxylic acid” (Cheil Foods & Chemicals, Inc., priority 1992, dated 1996)", "origin": "cited, not measured here", "data": [{"compound": "O=C(O)c1cn(C2CC2)c2cc(N3CCNCC3)c(F)cc2c1=O", "note": "[Ciprofloxacin lactate]", "values": [{"measurement": "Precipitation in injection/solution (in words)", "setting": "lactate: contained in the injection in an excessive amount", "result": "tends to occur precipitation in an injection"}]}, {"compound": "O=C(O)c1cn(C2CC2)c2cc(N3CCNCC3)c(F)cc2c1=O", "note": "[Ciprofloxacin, 1-cyclopropyl-6-fluoro-1,4-dihydro-4-oxo-7-(1-piperazinyl)-quinoline-3-carboxylic acid]", "values": [{"measurement": "Antibacterial activities (in words)", "setting": "bacteria", "result": "potent antibacterial activities"}]}, {"compound": "methanesulfonate", "values": [{"measurement": "pH of known Ciprofloxacin salts (in words)", "setting": "solution", "result": "very low value of pH"}]}]}
